The values below come from article PMC3758303 (PLoS ONE, 2013).

The test system of test [1] is HCV-RNA replication in ORL8 cells. In words: Effect of VE on anti-HCV activity, ORL8 RL assay. Format: cell-based, hepatitis C virus. As to conditions: 72 hrs. As for the experimental part:
After treatment, an RL assay of harvested ORL8 cell samples was performed. (B, D, and F) The ratio of RL activity in the presence of VE to the RL activity in the absence of VE. The above ratio was calculated from the data of (A, C, and E). […] (G) Western blot analysis was performed as described in Fig. 1B.
(§1) The ORL8 cells were treated with N-89 or IFN-α, and then RL assays were performed at 2 to 72 hrs after the treatment. The relative value (%) calculated at each time point, when the luciferase activity of non-treated cells at 24 hrs was assigned as 100%, is shown. Data are expressed as the means±standard deviation of triplicate assays. […] To evaluate this possibility, we examined the effect of VE on N-89 at the EC90 level in the ORL8 assay.

The test system of a further test is HCV-RNA replication. Set-up: method as in PMID 21620801, PMID 16875675. Conditions: cited from earlier work.
For test [2], the system named is genome-length HCV-RNA (O strain of genotype 1b) replication in HuH-7-derived OR6 cells. Set-up: method as in PMID 21320556. As to conditions: 10 µM, OR6 assay; cited from earlier work.
Test [3] deals with genome-length HCV-RNA (O strain of genotype 1b) replication in Li23-derived ORL8 cells. Set-up: method as in PMID 21320556. As to conditions: 10 µM, ORL8 assay; cited from earlier work.
The subject of test [4] is genome-length HCV-RNA (O strain of genotype 1b) replication in Li23-derived ORL11 cells. Also on record: method as in PMID 21320556. Conditions: 10 µM, ORL11 assay; cited from earlier work.
Test [5] deals with genome-length HCV-RNA (O strain of genotype 1b) replication in Li23-derived ORL8 cells. In words: ORL8 RL assay. Conditions: ORL8 cells. Type of test: cell-based, hepatitis C virus. As for the experimental part: RSc and D7 cells were derived from the cell lines HuH-7 and Li23, respectively, were cultured as described previously, [29]. HuH-7-derived OR6 [13], AH1R [30], and 1B-4R [Ikeda et al., submitted] cells harboring genome-length HCV-RNA and HuH-7-derived polyclonal sOR [31], and RSc-JRN/35B [Ikeda et al., submitted] cells harboring an HCV subgenomic replicon were cultured with medium in the presence of G418 (0.3 mg/ml; Geneticin, Invitrogen, Carlsbad, CA) as described previously. Li23-derived ORL8 [20], ORL11 [20], 1B-4RL [Ikeda et al., submitted], and KAH5RL [Ikeda et al., submitted] cells harboring genome-length HCV-RNA were maintained with medium in the presence of G418 (0.3 mg/ml) as described previously. Li23-derived polyclonal sORL8 and sORL11 cells harboring an HCV replicon, which were established by the transfection of ORN/3-5B/QR,KE,SR RNA into the cured OL8 and OL11 cells, respectively, were also cultured with medium in the presence of G418 (0.3 mg/ml) as described previously. […] Therefore, when HCV-RNA is excluded from the cells or when its level is decreased, the cells are killed in the presence of G418.
RL assay was performed as described previously, [24]. Briefly, the cells were plated onto 24-well plates (2×10^4 cells per well) in triplicate and then treated with each reagent at several concentrations for 72 hrs. After treatment, the cells were subjected to luciferase assay using the RL assay system (Promega, Madison, WI). The experiments were performed at least in triplicate. From the assay results, the 50% effective concentration (EC50) of each reagent was determined.
The SI value of each reagent was determined by dividing the CC50 value by the EC50 value.

In test [6] the test system is HCV-RNA replication in ORL8 cells. In words: Comparative time course RL assay in ORL8 cells. Type of test: cell-based, hepatitis C virus. As to conditions: 1 IU/ml. On the procedure: We next performed a time course assay (2 to 72 hrs after treatment) in the case of ORL8 cells treated with N-89 (0.1 µM or 1 µM) or IFN-α (1 IU/ml; corresponding to approximately EC80). ORL8 cells treated with IFN-α (1 IU/ml) and N-89 (1 µM) had almost the same anti-HCV kinetics over the first […] after treatment (upper panel of Fig. 4); however, within the first 12 hrs after treatment N-89-treated ORL8 cells had more rapid anti-HCV kinetics than did the IFN-α-treated cells (lower panel of Fig. 4).
as §1, with “Figure 4 The anti-HCV action of N-89 was faster than that of IFN-α. The ORL8” for “The ORL8”, “ORL8 assay. […] Similar results were obtained by using N-251 (Fig. 5C and D). […] However, an antimalarial drug, artemisinin, was hardly influenced by co-treatment with VE (Fig. 5E). The value (1.9) of artemisinin was almost the same as that (3.5 or 2.5) of IFN-α or the control, respectively (Fig. 5F).” for “ORL8 assay.”

Setting [7] is: reagent at expected EC90, Fig. 5F (control 2.5).

Consider `C[C@@H]1CC[C@H]2[C@@H](C)C(=O)O[C@@H]3O[C@@]4(C)CC[C@@H]1[C@]32OO4` [Artemisinin, reference compound], for which, in test [1] (setting [7]), the “VE 10μM(+) / VE 10μM(-) ratio of RL activity” value came out at 1.9. In the test with HCV-RNA replication, the anti-HCV activity entry is on record as “weak anti-HCV activity”.
As for `NC(=O)c1ncn([C@@H]2O[C@H](CO)[C@@H](O)[C@H]2O)n1` [RBV, ribavirin], the “inhibition of HCV-RNA replication” value in test [2] is listed as “not in the OR6 assay”; in test [3] it was “efficiently inhibited HCV-RNA replication”; in test [4], “efficiently inhibited HCV-RNA replication”.
Consider IFN-α, for which the EC80 in test [5] is reported as approximately 1 IU/ml. In test [6], the “time after treatment at which a decrease of RL activity began to be seen” value turned out to be 12 h. Further, the “VE 10μM(+) / VE 10μM(-) ratio of RL activity” value in test [1] (reagent at expected EC90, Fig. 5B (control 3.0)) amounted to 3.2; in test [1] (reagent at expected EC90, Fig. 5D (control 2.3)), 4.3; in test [1] (setting [7]), 3.5.
